# According to PMC10223284, “Category-Based Toxicokinetic Evaluations of Data-Poor Per- and Polyfluoroalkyl Substances (PFAS) using Gas Chromatography Coupled with Mass Spectrometry” (Toxics, 2023):
# Values joined by “and” are separate entries in the source; they are usually repeats but may differ in a detail not shown here. Equal entries are not always repeated. Where two headings read alike, the source gives them in different places.
# Assays:
# human plasma [1] = assay: Ultracentrifugation (UC) plasma protein binding assay, fraction unbound in plasma (fup)
# human plasma [2] = assay: Chemical stability in plasma over the UC assay time course (T5hr/T1hr)
# Experimental: Three replicates were run per experiment, with 4NT included as a reference compound in each to evaluate assay performance. All PFAS and 4NT, prepared at a 3 mM working stock, were added to human plasma to achieve a final, thoroughly mixed assay concentration of 10 μM, incubated at 37 °C for 1 h with shaking. […] After UC, the aqueous fraction (AF; i.e., supernatant devoid of plasma proteins/lipoproteins/fatty acids) was collected and transferred to a new tube. The second aliquot maintained at 37 °C was collected (T5hr). At the relevant time points, each volume of sample was combined with 3 volumes of vigorously mixed ice-cold acetonitrile with the labeled IS and stored for 10 min at −20 °C prior to centrifugation at 12,000× g for 10 min at 4 °C. The supernatant was collected and stored at <−70 °C until quantitative analysis. […] Furthermore, chemical stability in plasma over the assay time course was assessed using the T1hr and T5hr samples.
# Percent chemical remaining at the end of the UC assay (T5hr/T1hr) was used to remove unstable chemicals from further evaluation.
# [3] = Hepatic metabolic stability (hepatocyte clearance) assay, substrate depletion; assay type: in vitro ADME, human; conditions: both sexes, human
# In short: (§1)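 Substrate depletion of 1 μM compound, 37 °C, with pooled human hepatocytes (50-donor, 50,000 cells/100 μL) in William's E; samples quenched in acetonitrile up to 240 min, triplicate time points. Intrinsic clearance (μL/min/million hepatocytes) and half-life derived from semi-log slope, background-adjusted using media-only and inactivated-cell controls; compounds with ≥50% abiotic loss at T120 excluded.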
# [4] = test system: pooled human cryopreserved primary hepatocyte suspensions; assay: as above; assay type: in vitro ADME
# In short: as §1
# [5] = In vitro-in vivo extrapolation (IVIVE) to Css and administered equivalent dose (AED); design: species or system human
# In short: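 Administered equivalent doses come from pairing modelled Css with literature in vitro LOECs. Css itself is predicted by IVIVE from experimental hepatic Clint, scaled up to whole-liver clearance in L/h, and experimental fraction unbound in plasma. That fraction was adjusted to unbound-in-blood via blood:plasma partitioning.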
# human primary cells = conditions: cited from earlier work
# [6] = Abiotic loss in negative controls of the hepatocyte clearance assay (cell-free media, metabolically inactivated hepatocytes); assay type: in vitro ADME
# In short: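 Abiotic stability was checked with media-only and inactivated-hepatocyte controls, run at T0 and T240 or, on rerun, at more time points. Compound at 1 μM, 37 °C, acetonitrile quench. Loss rates served for background subtraction, and ≥50% loss by T120 meant exclusion.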
# [7] = hepatocyte incubation, Rep 1-3, start conc 1000 nM
# [8] = heat treated hepatocytes, Rep 1-3
structure (smiles),measurement,setting,value
"OCC(F)(F)C(F)(F)C(F)(F)C(F)(F)C(F)(F)C(F)(F)C(F)(F)C(F)(F)CO [1H,1H,10H,10H-Perfluorodecane-1,10-diol]",Aqueous Fraction,"human plasma [1]; amount measured in aqueous fraction after ultracentrifugation, replicates A, B, C, unit not given",3710.68 and 3362.14 and 3011.07
same,"Aqueous Fraction, Run-specific Avg","human plasma [1]; amount measured in aqueous fraction after ultracentrifugation, run average, unit not given",3361.30
same,fup,"human plasma [1]; human plasma, 10 μM, ultracentrifugation, 37 °C",0.0047
same,Fup.Med,"human plasma [1]; median fraction unbound in plasma, UC assay Level4",0.00408
same,Fup.point,"human plasma [1]; point estimate of fraction unbound in plasma, UC assay Level4",0.00496
same,"Fraction Unbound (fu), replicates A, B, C",human plasma [1]; single replicate of one UC run (aqueous fraction / Time 5 hr),0.005168 and 0.005301 and 0.003775 and 0.006151 and 0.003351
same,Time 1 hr,"human plasma [2]; amount measured in plasma sample at 1 hr, replicates A, B, C, unit not given",7311.43 and 5462.42 and 6036.15
same,"Time 1 hr, Run-specific Avg","human plasma [2]; amount measured in plasma sample at 1 hr, run average, unit not given",6270.00
same,Time 5 hr,"human plasma [2]; amount measured in plasma sample at 5 hr, replicates A, B, C, unit not given",3659.49 and 4052.89 and 4429.19
same,"Time 5 hr, Run-specific Avg","human plasma [2]; amount measured in plasma sample at 5 hr, run average, unit not given",3856.19
same,"Stability (T5hr/ T1hr), Run-specific Avg",human plasma [2]; average of one UC run,0.615
same,"Stability (T5hr/ T1hr), Run-specific Avg",human plasma [2]; average of one UC run (run date in line above),0.958
same,PPB_Stab_Fail,"human plasma [2]; flag for stability failure in the plasma protein binding assay (1 = fail, 0 = pass)",0
same,Mean Stability,human plasma [2]; mean T5hr/T1hr ratio in plasma over all replicates/runs,0.657
same,Mean Stability,"human plasma [2]; mean T5hr/T1hr ratio over all replicates and runs, plasma",1.003
same,Fstable.Med,"human plasma [2]; median fraction stable in plasma, UC assay Level4",0.997
same,"Stability (T5hr/ T1hr), replicates A, B, C",human plasma [2]; single replicate of one UC run,1.07 and 1.007 and 0.9333 and 0.9811 and 1.003 and 1.254
same,hepatocyte CLint at 1 μM,"[3]; hepatocytes, background-subtracted, read-out: Bkgd-Sub Clearance (µL/min/106 hepatocytes)",56.6 µL/min/1e6 cells
same,hepatocyte CLint at 1 μM,"[3]; hepatocytes, hepatocyte clearance, Conc 1000 nM, not background adjusted, read-out: Unadj Clint",56.6 µL/min/1e6 cells
same,hepatocyte CLint at 1 μM,"[3]; hepatocytes, pooled human hepatocyte suspensions, 1 μM, read-out: In Vitro Clint",49.9 µL/min/1e6 cells
same,hepatocyte CLint at 1 μM,"[3]; hepatocytes, unadjusted hepatocyte intrinsic clearance, read-out: Unadj in vitro Clint",56.6 µL/min/1e6 cells
same,hepatocyte CLint at 1 μM,"[3]; hepatocytes, hepatocyte time course, NS = slope not significant, read-out: Linear Regression Results, Best-Fit Values, Clearance",56.6 µL/min/1e6 cells
same,half-life at 1 μM,"[3]; hepatocytes, hepatocyte time course, NS = slope not significant, read-out: Linear Regression Results, Best-Fit Values, Half Life",0.408 h
same,hepatocyte CLint at 1 μM,"[3]; s9, Bayesian analysis median, 1 μM assay concentration (Table S9), read-out: Clint.1.Med",115 µL/min/1e6 cells
same,"Concentration (nM), Time 0 min",[4]; [7],503.86 nM and 483.613 nM and 411.089 nM
same,"Concentration (nM), Time 15 min",[4]; [7],181.506 nM and 316.777 nM and 270.544 nM
same,"Concentration (nM), Time 30 min",[4]; [7],207.766 nM and 203.542 nM and 107.454 nM
same,"Linear Regression Results, Best-Fit Values, Slope",[4]; hepatocyte time course,-0.0283
same,In Vitro Clint,"[4]; pooled human hepatocyte suspensions, 1 μM",49.86 μL/min/10^6 cells
same,Css,"[5]; Assuming 1 mg/kg/day dose rate, BW 70 kg",0.68 mg/L and 1.47 uM
same,Clhep,"[5]; IVIVE, hepatocyte Clint scaled to whole-liver clearance",4.275 L/h
same,AED,[5]; administered equivalent dose from LOEC and Css,1.3619 mg/kg/day
same,Fub,"[5]; fub=fup/(B:P), Fub set to 1 if needed",0.008545
same,Css,"[5]; human steady-state plasma concentration, assuming 1 mg/kg/day dosage",1.47 µM
same,CLint,"[5]; scaled with HPGL 110 mill cells/g, Vl 1596 g",8753422 µL/min
same,LOEC,human primary cells; BioSeek lowest-observed effect concentration used for AED,2.00 µM
same,LOEC,"human primary cells; minimum lowest-observed effect concentration, BioSeek platform",2 µM
same,half-life at 1 μM,"[6]; both sexes, human, heat treated hepatocytes control, 0 vs 240 min, read-out: HT BkgdCl, Half Life",4.63 h
same,half-life at 1 μM,"[6]; buffer, no cells control, 0 vs 240 min, read-out: No Cells BkgdCl, Half Life",3.43 h
same,Hep_Stab_Fail,"[6]; flag for stability failure in hepatocyte clearance assay controls (1 or Fst = fail, 0 = pass)",0
same,"HT BkgdCl, Slope","[6]; heat treated hepatocytes control, 0 vs 240 min",-0.002496
same,"Negative Controls, Heat Treated (HT), concentration at 0 min",[6]; [8],370.156 nM and 373.519 nM and 421.129 nM
same,"Negative Controls, Heat Treated (HT), concentration at 240 min",[6]; [8],211.286 nM and 241.673 nM and 189.092 nM
same,"No Cells BkgdCl, Slope","[6]; no cells control, 0 vs 240 min",-0.003368
same,"Negative Controls, No cells (NC), concentration at 0 min","[6]; no cells, Rep 1-3",394.883 nM and 393.112 nM and 400.596 nM
same,"Negative Controls, No cells (NC), concentration at 240 min","[6]; no cells, Rep 1-3",205.477 nM and 157.76 nM and 169.683 nM
